In patent US20210290676A1, “IMPROVING THE EFFICACY AND SAFETY OF ADOPTIVE CELLULAR THERAPIES” (University of Southern California, priority 2018, published 2021):

Key:
Assay type in all cases: cell-based, human
[1] = tested on: Pgp+ (DiOC2(3)-dye effluxing) T cells; assay: DiOC2(3) dye efflux flow cytometry of inhibitor-treated T cells; details: for p2: pgp+ from Live cells: treatment for 13 days, IL2 + CD3 and CD28 antibodies
Description: (§1) The use of P-glycoprotein (Pgp)-mediated efflux of DiOC2(3) to isolate stem like T cells for adoptive cellular therapy has been described in application no. […] In the following examples, DiOC2(3) staining was used to study the effect of different inhibitors on generation of stem like T cells.
(§2) DAY 0: Blood was obtained from unidentified donor. After RBC lysis, PBMC were collected using Ficoll-Hypaque separation. […] T cells were cultured in three different conditions: • 1. XVIVO 15 medium (Lonza) with IL2 50 IU/ml, CD3 antibody (30 ng/ml) and CD28 antibody (30 ng/ml). • 2. XVIVO 15 medium (Lonza) with CD3 antibody (30 ng/ml) and CD28 antibody (30 ng/ml). • 3. XVIVO 15 medium (Lonza) with IL2 50 IU/ml DAY 1: Cells were plated in a 6-well plate at a density of 1 million cells in 2 ml/of media (as described above) and treated with different inhibitors
(§3) The cell growth medium was changed in 6-well plates and fresh drugs were added at same concentration for one more week.
(§4) […] (DAY 11): Culture medium was changed and fresh drugs were added in 6-well plates.
(§5) Subsequently, cells were washed with RPMI medium and dye was effluxed at 37° C. for 90 min. Cells were washed with […], stained with CD62L-APC (5 μl/100 μl/sample) at 4° C. for 1 h, washed twice with PBS+1% FBS and analyzed on flow cytometer to check if these drugs treatment leads to increase in Pgp+/CD62L positive population.
(§6) Day 0: Blood was obtained from unidentified donor. After RBC lysis, PBMC were collected using Ficoll-Hypaque separation. 200 million T cells were isolated from PBMCs using CD3 microbeads. T cells were cultured overnight in XVIVO 15 medium (Lonza) with IL2 (50 IU/ml), 30 ng/ml of CD3 and CD28 antibodies
(§7) Day 1: Cells were plated in 24-well plates at a density of 0.3 million cells/ml in each well and treated with different drugs.
(§8) On day 7, culture medium was replaced with fresh medium with fresh drugs.
(§9) On day 13, culture medium was replaced with fresh medium and fresh drugs. Half of the cells were transferred to 6-well plates.
(§10) Day 14: An aliquot of cells with all the treatments listed above (for 13 days) was used to stain the cells with DiOC2(3) (60 ng/ml in RPMI medium) at 4° C. for 40 min, washed with RPMI medium, DiOC2(3) dye was effluxed at 37° C. for 90 min, washed with PBS+1% FBS, stained with CD62L-APC antibody. CD62L is a marker for resting T cells. (5 μl/100 μl/sample) at 4° C. for 1 h, washed twice with PBS+1% FBS and analyzed on flow cytometer to check if these drugs are affecting the dye-effluxing or Pgp+ (i.e., DiOC2(3)-dull) T-cell population.

[2] = tested on: Pgp+ (DiOC2(3)-dye effluxing cells) and CD62L+ T cells; assay: DiOC2(3) dye efflux plus CD62L-APC staining, flow cytometry of inhibitor-treated T cells; details: for p5: double +ve pgp+ and CD62L-APC+ from Live cells: treatment for 13 days, IL2 + CD3 and CD28 antibodies
Description: as §1, §2, §3, §4, §5, §6, §7, §8, §9, §10

[3] = tested on: CD8+CD45RA+CCR7+CD62L+ T cells; assay: Flow cytometry for CD8, CD45RA, CCR7 and CD62L on inhibitor-treated T cells; details: for % of CD62L+CCR7+ double positive cells out of CD45RA+ cells in CD8+ T cell population: 13 days of treatment; for GATE P4 CD8(PerCP)+, CD45RA(FITC)+, CCR7 (PE)+, CD62L(APC): cells cultured for 14 days
Description: as §2
(§11) A second aliquot of the cells cultured for 13 days with all the treatments listed above (1-21) was washed with PBS+1% FBS, stained with CD8-PerCP, CD45RA-FITC, CCR7-PE and CD62L-APC (5% Y/100 μl/sample for each of 4 antibodies) at 4° C. for 1 h, washed twice with PBS+100 FBS and analyzed on flow cytometer to check if these drugs are enriching T stem cells showing surface expression of CD8+CD45RA+CCR7+CD62L+.
as §6, §7, §8, §9
as §11, with “14” for “13”, “above” for “above (1-21)”, “(5 ul/100 ul/sample” for “(5% Y/100 μl/sample”, “PBS+1%” for “PBS+100”, “enriching for” for “enriching”, “T” for “T stem”

[4] = tested on: CD45RA+CCR7+CD62L+ T cells; assay: Flow cytometry for CD45RA, CCR7 and CD62L on inhibitor-treated T cells (all T cells); details: for % of CD62L+CCR7+ double positive cells out of CD45RA+ cells in live T cell population: 13 days treatment; for GATE P6 CD45RA(FITC)+, CCR7 (PE)+, CD62L(APC): cells cultured for 14 days
Description: as §2, §11, §6, §7, §8, §9
as §11, with “14” for “13”, “above” for “above (1-21)”, “(5 ul/100 ul/sample” for “(5% Y/100 μl/sample”, “PBS+1%” for “PBS+100”, “enriching for” for “enriching”, “T” for “T stem”

[5] = CD3-CD28-IL2 culture, inhibitor 10 nM
[6] = CD3-CD28-IL2 culture, inhibitor 100 nM
[7] = CD3-CD28-IL2 culture, inhibitor 200 nM
[8] = CD3-CD28 culture, inhibitor 10 nM
[9] = CD3-CD28 culture, inhibitor 100 nM
[10] = CD3-CD28 culture, inhibitor 200 nM
[11] = CD3-IL2 culture, inhibitor 10 nM
[12] = CD3-IL2 culture, inhibitor 100 nM
[13] = CD3-IL2 culture, inhibitor 200 nM

## CCN(c1cc(-c2ccc(CN3CCOCC3)cc2)cc(C(=O)NCc2c(C)cc(C)[nH]c2=O)c1C)C1CCOCC1 [Tazemetostat]
[1]; CD3-CD28-IL2 culture, inhibitor 10 nM, 6 days of treatment
  % of Pgp+ cells out of live cells: 21.86%
[1]; CD3-CD28-IL2 culture, inhibitor 10 nM, 13 days of treatment
  % of Pgp+ cells out of live cells: 30.38%
[1]; CD3-CD28-IL2 culture, inhibitor 100 nM, 6 days of treatment
  % of Pgp+ cells out of live cells: 27.17%
[1]; CD3-CD28-IL2 culture, inhibitor 100 nM, 13 days of treatment
  % of Pgp+ cells out of live cells: 38.45%
[1]; CD3-CD28-IL2 culture, inhibitor 200 nM, 6 days of treatment
  % of Pgp+ cells out of live cells: 24.85%
[1]; CD3-CD28-IL2 culture, inhibitor 200 nM, 13 days of treatment
  % of Pgp+ cells out of live cells: 41.22%
[1]; CD3-CD28 culture, inhibitor 10 nM, 6 days of treatment
  % of Pgp+ cells out of live cells: 39.28%
[1]; CD3-CD28 culture, inhibitor 10 nM, 13 days of treatment
  % of Pgp+ cells out of live cells: 12.41%
[1]; CD3-CD28 culture, inhibitor 100 nM, 6 days of treatment
  % of Pgp+ cells out of live cells: 40.50%
[1]; CD3-CD28 culture, inhibitor 100 nM, 13 days of treatment
  % of Pgp+ cells out of live cells: 5.19%
[1]; CD3-CD28 culture, inhibitor 200 nM, 6 days of treatment
  % of Pgp+ cells out of live cells: 43.11%
[1]; CD3-CD28 culture, inhibitor 200 nM, 13 days of treatment
  % of Pgp+ cells out of live cells: 11.82%
[1]; CD3-IL2 culture, inhibitor 10 nM, 6 days of treatment
  % of Pgp+ cells out of live cells: 24.77%
[1]; CD3-IL2 culture, inhibitor 10 nM, 13 days of treatment
  % of Pgp+ cells out of live cells: 28.61%
[1]; CD3-IL2 culture, inhibitor 100 nM, 6 days of treatment
  % of Pgp+ cells out of live cells: 25.31%
[1]; CD3-IL2 culture, inhibitor 100 nM, 13 days of treatment
  % of Pgp+ cells out of live cells: 16.74%
[1]; CD3-IL2 culture, inhibitor 200 nM, 6 days of treatment
  % of Pgp+ cells out of live cells: 25.89%
[1]; CD3-IL2 culture, inhibitor 200 nM, 13 days of treatment
  % of Pgp+ cells out of live cells: 28.06%
[1]; culture with CD3 antibody, CD28 antibody and IL2, 6 days of treatment, 10 nM
  percentage of Pgp+ cells: 27.17%
[2]; CD3-CD28-IL2 culture, inhibitor 10 nM, 6 days treatment
  % of Pgp+ CD62L+cells out of live cells: 8.42%
[2]; CD3-CD28-IL2 culture, inhibitor 10 nM, 13 days treatment
  % of Pgp+ CD62L+cells out of live cells: 8.03%
[2]; CD3-CD28-IL2 culture, inhibitor 100 nM, 6 days treatment
  % of Pgp+ CD62L+cells out of live cells: 13.16%
[2]; CD3-CD28-IL2 culture, inhibitor 100 nM, 13 days treatment
  % of Pgp+ CD62L+cells out of live cells: 12.57%
[2]; CD3-CD28-IL2 culture, inhibitor 200 nM, 6 days treatment
  % of Pgp+ CD62L+cells out of live cells: 11.30%
[2]; CD3-CD28-IL2 culture, inhibitor 200 nM, 13 days treatment
  % of Pgp+ CD62L+cells out of live cells: 14.25%
[2]; CD3-CD28 culture, inhibitor 10 nM, 6 days treatment
  % of Pgp+ CD62L+cells out of live cells: 19.36%
[2]; CD3-CD28 culture, inhibitor 10 nM, 13 days treatment
  % of Pgp+ CD62L+cells out of live cells: 2.95%
[2]; CD3-CD28 culture, inhibitor 100 nM, 6 days treatment
  % of Pgp+ CD62L+cells out of live cells: 18.38%
[2]; CD3-CD28 culture, inhibitor 100 nM, 13 days treatment
  % of Pgp+ CD62L+cells out of live cells: 1.18%
[2]; CD3-CD28 culture, inhibitor 200 nM, 6 days treatment
  % of Pgp+ CD62L+cells out of live cells: 20.94%
[2]; CD3-CD28 culture, inhibitor 200 nM, 13 days treatment
  % of Pgp+ CD62L+cells out of live cells: 2.66%
[2]; CD3-IL2 culture, inhibitor 10 nM, 6 days treatment
  % of Pgp+ CD62L+cells out of live cells: 8.76%
[2]; CD3-IL2 culture, inhibitor 10 nM, 13 days treatment
  % of Pgp+ CD62L+cells out of live cells: 9.87%
[2]; CD3-IL2 culture, inhibitor 100 nM, 6 days treatment
  % of Pgp+ CD62L+cells out of live cells: 10.11%
[2]; CD3-IL2 culture, inhibitor 100 nM, 13 days treatment
  % of Pgp+ CD62L+cells out of live cells: 4.31%
[2]; CD3-IL2 culture, inhibitor 200 nM, 6 days treatment
  % of Pgp+ CD62L+cells out of live cells: 11.97%
[2]; CD3-IL2 culture, inhibitor 200 nM, 13 days treatment
  % of Pgp+ CD62L+cells out of live cells: 9.08%
[2]; culture with CD3 antibody, CD28 antibody and IL2, 6 days of treatment, 100 nM
  percentage of Pgp+CD62L+ cells: 13.168%
[3]; [5]
  % of CD62L+CCR7+ double positive cells out of CD45RA+ cells in CD8+ T cell population: 62.73%
[3]; [6]
  % of CD62L+CCR7+ double positive cells out of CD45RA+ cells in CD8+ T cell population: 83.53%
[3]; [7]
  % of CD62L+CCR7+ double positive cells out of CD45RA+ cells in CD8+ T cell population: 80.78%
[3]; [8]
  % of CD62L+CCR7+ double positive cells out of CD45RA+ cells in CD8+ T cell population: 87.00%
[3]; [9]
  % of CD62L+CCR7+ double positive cells out of CD45RA+ cells in CD8+ T cell population: 88.26%
[3]; [10]
  % of CD62L+CCR7+ double positive cells out of CD45RA+ cells in CD8+ T cell population: 88.37%
[3]; [11]
  % of CD62L+CCR7+ double positive cells out of CD45RA+ cells in CD8+ T cell population: 82.23%
[3]; [12]
  % of CD62L+CCR7+ double positive cells out of CD45RA+ cells in CD8+ T cell population: 79.86%
[3]; [13]
  % of CD62L+CCR7+ double positive cells out of CD45RA+ cells in CD8+ T cell population: 77.35%
[4]; [5]
  % of CD62L+CCR7+ double positive cells out of CD45RA+ cells in live T cell population: 50.85%
[4]; [6]
  % of CD62L+CCR7+ double positive cells out of CD45RA+ cells in live T cell population: 67.51%
[4]; [7]
  % of CD62L+CCR7+ double positive cells out of CD45RA+ cells in live T cell population: 66.36%
[4]; [8]
  % of CD62L+CCR7+ double positive cells out of CD45RA+ cells in live T cell population: 77.81%
[4]; [9]
  % of CD62L+CCR7+ double positive cells out of CD45RA+ cells in live T cell population: 79.62%
[4]; [10]
  % of CD62L+CCR7+ double positive cells out of CD45RA+ cells in live T cell population: 78.45%
[4]; [11]
  % of CD62L+CCR7+ double positive cells out of CD45RA+ cells in live T cell population: 67.30%
[4]; [12]
  % of CD62L+CCR7+ double positive cells out of CD45RA+ cells in live T cell population: 63.89%
[4]; [13]
  % of CD62L+CCR7+ double positive cells out of CD45RA+ cells in live T cell population: 59.08%

## COc1cc2c(NC3CCN(C(C)C)CC3)nc(N3CCC(F)(F)CC3)nc2cc1OCCCN1CCCC1 [UNC0642]
[1]; 10 nM
  p2: pgp+ from Live cells: 22.03
[1]; 100 nM
  p2: pgp+ from Live cells: 32.51
[2]; 10 nM
  p5: double +ve pgp+ and CD62L-APC+ from Live cells: 4.46
[2]; 100 nM
  p5: double +ve pgp+ and CD62L-APC+ from Live cells: 4.81
[3]; 10 nM
  GATE P4 CD8(PerCP)+, CD45RA(FITC)+, CCR7 (PE)+, CD62L(APC): 71.62%
[3]; 100 nM
  GATE P4 CD8(PerCP)+, CD45RA(FITC)+, CCR7 (PE)+, CD62L(APC): 82.37%
[4]; 10 nM
  GATE P6 CD45RA(FITC)+, CCR7 (PE)+, CD62L(APC): 63.95%
[4]; 100 nM
  GATE P6 CD45RA(FITC)+, CCR7 (PE)+, CD62L(APC): 75.75%
